Values quoted from earlier work as cited in patent publication US9259452B2, “Deacetylase inhibitor therapy” (Celgene Corporation, priority 2006, dated 2016).
Read-outs that look alike come from different tables or passages of the source.

Conditions: cited from earlier work; for ECG effects reported: clinical trials

## O=C(/C=C/c1cccc(S(=O)(=O)Nc2ccccc2)c1)NO [PXD101]
Phase I trials
  Supraventricular tachycardia reported: dose limiting toxicity

## O=C(/C=C/c1ccc(CN(CCO)CCc2cc3ccccc3[nH]2)cc1)NO [LAQ824]
77 patients treated
  Change in QTc interval: statistically significant increase
  ECG effects reported: non-specific T-wave or ST segment abnormalities
Of 77 patients treated
  Patients having QTc prolongation of greater than 60 ms: 10%
When re-treated at a lower dose level
  Event in one patient with QTc greater than 500 ms: torsades de pointes

## O=C(CCCCCCC(=O)Nc1ccccc1)NO [SAHA, Suberoylanilide Hydroxamic Acid]
  ECG effects reported: non-specific T-wave or ST segment abnormalities

## Cc1[nH]c2ccccc2c1CCNCc1ccc(/C=C/C(=O)NO)cc1 [LBH589]
12 patients treated at higher dose levels
  Patients with QTc prolongation of greater than 500 ms: 42%
Of 12 patients treated at higher dose levels
  Patients with QTc prolongation of greater than 500 ms: 5
